Results taken from patent US8088799B2, “Pharmaceutical composition comprising a sodium hydrogen exchange inhibitor and an angiotensin converting enzyme inhibitor” (Sanofi-Aventis Deutschland GmbH, priority 2002, dated 2012).
Entries after “also recorded” stand apart in the source; their conditions may differ.

What was measured:
[1] = tested on: spontaneously hypertensive rats (SHR); assay: Survival rate of old spontaneously hypertensive rats under late-onset treatment; format: in vivo, rat; set-up: key to Holm-adjusted log rank test of survival vs. Cariporide / Holm-adjusted log rank test of survival vs. Placebo: * indicates significant difference; n.s. = not significant; settings: for Median survival time: time from start of treatment (18th month of life) at which survival rate reaches 50%, Kaplan-Meier estimate
Procedure: (§1) The pharmacological model of spontaneously hypertensive rat is generally accepted to be representative of human essential hypertony. In each experimental group initially 27 18-months old rats were employed. 3 months after the start of treatment, when the number of surviving animals in the placebo control group was only 7, an interim analysis was carried out on 7 animals from each group.
The effect of a ramipril and cariporide combination product on the survival rate of rats with genetically related hypertension was investigated.
(§2) In the experiment old hypertensive rats (age: 18 months) were treated with the NHE inhibitor cariporide or with a subthreshold dose of ramipril with no lowering effect on the blood pressure or with a combination of both substances. For each of the four treatments 27 18-month old rats were employed. A daily dose of 400 mg of cariporide per kg body weight (0.6% cariporide in standard rat feed) and 10 μg ramipril per kg body weight (in the drinking water) were given. 3 months after the start of treatment, when the number of surviving animals in the placebo control group was only 7, an interim analysis was carried out on 7 animals from each group. The remaining, still living rats per group were continuously treated as mentioned above since they were 18 months old.
Thus, in the determination of the survival time […] 18-month old rats were employed in each experimental group (table 1).
There are evidently distinct differences between placebo and product groups on the one hand and between the individual products and the combination after the experiment had lasted only 3-4 months.
The statistical analysis was carried out essentially using the SAS/STAT procedure LIFETEST [SAS Institute Inc. (1989): SAS/STAT User's Guide, Version 6, 4th Edition, Volume 2, Cary, N.C.; SAS Institute Inc.]. The log rank tests were carried out pairwise on the experimental groups and adjusted to obtain a multiple significance level of 5% according to Holm [S. Holm (1979): A Simple Sequentally Rejective Multiple Test Procedure; Scand. J. Statist.; 6, pp 65-70].

old normotensive rats = settings: from WO 00/38661; cited from earlier work
[2] = tested on: hearts of old spontaneously hypertensive rats; assay: Interim analysis 3 months after start of treatment: heart function, myocardial fibrosis (Hyp/Arg), heart weight; format: in vivo, rat; settings: 7 animals per group; for Force of myocardial contraction / function of the heart: compared with placebo control hearts, 3 months after start of treatment
Procedure: as §1, §2
As mentioned above, 3 months after the start of treatment, when the number of surviving animals in the placebo control group was only 7, an interim analysis was carried out on 7 animals from each group. The weight of the complete heart and the weight of the left and right ventricle were measured. Just so, the molar ratio of hydroxyproline and ariginine in the heart tissues was measured (measured via HPLC), which is a marker for the myocardial fibrosis. […] Hyp/Arg is the ratio of hydroxyproline to arginine and is regarded as a fibrosis marker.
These effects are also reflected in the weights of the hearts (FIG. 3).

[3] = tested on: spontaneously hypertensive rats; settings: known for some time; cited from earlier work
[4] = age 18 months (start of treatment), 20 rats per group, cariporide 400 mg/kg/day in feed, ramipril 10 μg/kg/day in drinking water
[5] = age 19 months, of 20 rats per group
[6] = age 20 months, of 20 rats per group
[7] = age 21 months, of 20 rats per group
[8] = age 22 months, of 20 rats per group
[9] = age 23 months, of 20 rats per group
[10] = age 24 months, of 20 rats per group
[11] = age 25 months, of 20 rats per group
[12] = age 26 months, of 20 rats per group
[13] = age 27 months, of 20 rats per group
[14] = age 28 months, of 20 rats per group
[15] = age 29 months, of 20 rats per group
[16] = pairwise comparison, multiple significance level of 5%

SMILES | Number of surviving rats [1, 4] | Number of surviving rats [1, 5] | Number of surviving rats [1, 6] | Number of surviving rats [1, 7] | Number of surviving rats [1, 8] | Number of surviving rats [1, 9] | Number of surviving rats [1, 10] | Number of surviving rats [1, 11] | Number of surviving rats [1, 12] | Number of surviving rats [1, 13] | Number of surviving rats [1, 14] | Number of surviving rats [1, 15] | Holm-adjusted log rank test of survival vs. Placebo [1, 16] | Survival rate compared with the placebo treatment ([1]; result in words) | Median survival time [1] [months] | Force of myocardial contraction / function of the heart [2] | further results
CCOC(=O)[C@H](CCc1ccccc1)N[C@@H](C)C(=O)N1[C@H](C(=O)O)C[C@@H]2CCC[C@@H]21 [Ramipril, ramipril] | 20 | 18 | 15 | 11 | 9 | 4 | 0 | 0 | 0 | 0 | 0 | 0 | * | statistically significant improvement in the survival rate | 4.0 | significant reduction in the force of myocardial contraction | Holm-adjusted log rank test of survival vs. Cariporide [1, 16]: n.s.; Protective effect on pathological age-related organ changes (old normotensive rats): no protective effect at all; Life span of spontaneously hypertensive rats [3]: significantly prolongs the life span
CC(C)c1ccc(C(=O)N=C(N)N)cc1S(C)(=O)=O.CS(=O)(=O)O [Cariporide, cariporide] | 20 | 18 | 16 | 12 | 8 | 7 | 7 | 5 | 0 | 0 | 0 | 0 | * | statistically significant improvement in the survival rate | 4.0 | significantly improved the function of the heart | Difference in survival rates between cariporide and ramipril ([1]; result in words, chosen significance level): No significant differences; Weight of the hearts ([2]; 3 months after start of late treatment): significantly smaller weights of the hearts; Myocardial fibrosis (Hyp/Arg ratio of hydroxyproline to arginine) ([2]; 3 months after start of late treatment, HPLC): significantly reduced; also recorded: possible for a preexisting fibrosis to be reduced
